In publication PMC5324278, “Novel synthetic analogues of avian β-defensin-12: the role of charge, hydrophobicity, and disulfide bridges in biological functions” (BMC Microbiology, 2017):
Read-outs that look alike come from different tables or passages of the source. Bridge positions count the residues as written; N and C are the ends. Square brackets hold non-standard residues; d marks the D form. Ends that are not written are not given here. Abu = CC[C@H](N)C(=O)O

Columns and labels:
[1] = system: Escherichia coli (ATCC 25922); assay type: cell-based; conditions: ATCC 25922, 2 h, 16 μg/ml
Method: (§1) Escherichia coli (ATCC 25922), Pseudomonas aeruginosa (ATCC 27853), Salmonella enteric serovar Typhimurium (ATCC 14028) and Staphylococcus aureus (ATCC 29213) were used to assess the antimicrobial activity of AvBD analogues. All bacterial strains were grown on Luria-Bertani (LB) agar plates or Trypticase Soy Agar with 5% Sheep Blood (TSA, Thermo Fisher Scientific) plates at 37 °C. Antimicrobial activity was determined by a colony counting assay. In brief, bacteria were resuspended in 100-fold diluted Mueller Hinton II broth with 5 mM NaCl (minimal growth medium) to obtain a final bacterial concentration of 2 × 10^5 CFU/ml. Twenty-five microliters of bacterial suspension and 25 μl of AvBD analogue solution were mixed in the wells of a 96-well polypropylene microtiter plate (Nunc™, Thermo Fisher Scientific). The final peptide concentrations were 2, 4, 8, 16, 32, 64 and 128 μg/ml. The minimal growth medium without AvBD peptide was included as a negative control. The bacterial-peptide mixtures were incubated at 37 °C for 2 h, ten-fold serially diluted and plated on LB agar plates. The numbers of bacteria colonies were enumerated after 16 h of incubation at 37 °C. Antimicrobial activity was expressed as percent of killing using the following formula: (CFUcontrol - CFUtreated) / CFUcontrol × 100%. To assess the resistance of AvBD analogues to sodium chloride (NaCl), antimicrobial assays were carried out in the presence of 5 mM, 50 mM, 100 mM or 150 mM NaCl. All assays were performed in triplicate.

[2] = system: Pseudomonas aeruginosa (ATCC 27853); assay type: cell-based; conditions: ATCC 27853, 2 h; for percent of killing of P. aeruginosa: 16 μg/ml; for killing potency against P. aeruginosa retained at 150 mM NaCl: 32 μg/ml
Method: as §1

[3] = system: Salmonella enteric serovar Typhimurium (ATCC 14028); assay type: cell-based; conditions: for percent of killing of S. Typhimurium / killing activity against S. Typhimurium retained at 150 mM NaCl: ATCC 14028, 2 h; for percent of killing of S. Typhimurium: 16 μg/ml; for killing activity against S. Typhimurium retained at 150 mM NaCl: 32 μg/ml
Method: as §1

[4] = system: Staphylococcus aureus (ATCC 29213); assay type: cell-based; conditions: ATCC 29213, 2 h; for percent of killing of S. aureus: 16 μg/ml; for killing activity against S. aureus retained at 150 mM NaCl: 64 μg/ml
Method: as §1

E. coli (ATCC 25922) = assay type: cell-based, Escherichia coli
Method: (§2) The minimum inhibitory concentrations (MIC) of AvBDs were determined according to the guidelines of the Clinical and Laboratory Standards Institute (CLSI). The Muller Hinton II broth used in standard MIC assays contained 20–25 mg/L of calcium and 10–12.5 mg/L of magnesium. Modified MICs of AvBDs were also determined under a low-salt and low-nutrient condition by using 100× diluted Muller Hinton II broth containing 0.2 mg/L of calcium, 0.1 mg/L magnesium and 5 mM (292 mg/L) NaCl. MIC obtained under the low-salt and low-nutrient condition was referred to as MIC-ls. AvBD peptides were two-fold serially diluted (2 to 256 μg/ml) in a 96-well microtiter plate. An equal volume (μl) of bacterial suspension was added to each well of the plate. The final bacterial concentration in the wells was 5 × 10^5 CFU/ml. […] To complement MIC-ls assays, the minimum bactericidal concentrations (MBC) were evaluated by sub-culturing the contents of the first two clear wells obtained in the MIC-ls assay onto LB agar plates. All assays were conducted in triplicate. The lowest peptide concentration inhibiting more than 99% of bacterial growth was defined as MBC-ls. AvBD analogues were regarded as bactericidal if the MBC was no more than four times the MIC [29].

[5] = system: S. Typhimurium (ATCC 14028); assay type: cell-based, Salmonella enteric serovar Typhimurium
Method: as §2

[6] = system: P. aeruginosa (ATCC 27853); assay type: cell-based, Pseudomonas aeruginosa
Method: as §2

S. aureus (ATCC 29213) = assay type: cell-based, Staphylococcus aureus
Method: as §2

[7] = system: mouse immature dendritic JAWSII cells; assay: Chemotaxis assay, 48-well microchemotaxis chamber; assay type: cell-based; conditions: for chemotactic activity for JAWSII cells (in words): Fig. 9
Method: Migration of JAWSII and CCR2-CHO-K1 cells in response to AvBD-12 analogues was determined using a 48-well microchemotaxis chamber technique as previously described. Chemotaxis buffer (Minimum Essential Medium containing 0.1% BSA, 100U/ml penicillin, and 100 μg/ml streptomycin) and bacterial peptide N-Formyl-methionyl-leucyl-phenylalanine (fMLF, Sigma-Aldrich) were included as negative and positive controls, respectively. The results were presented as chemotactic index (C.I.). C.I. = number of migrated cells induced by AvBDs / number of migrated cells induced by chemotactic buffer. The assay was repeated five times.

CHO-K1 cells = assay: MTT cell cytotoxicity assay; assay type: cell-based; conditions: 256 μg/ml; 4, 12, 24 and 48 hours; Student t-test treated vs untreated; n = 3; Figure S1
Method: Chicken macrophage cell lines MQ-NCSU and HD11 were maintained in RPMI-1640 media supplemented with 10% fetal bovine serum (FBS), 2% chicken serum, 100 U/ml penicillin and 100 μg/ml streptomycin (Sigma-Aldrich) at 37 °C in humidified air with 5% CO2. CHO-K1 cells were cultured in the same media without 2% chicken serum. For CCR2-transfected CHO-K1 cells, the medium was supplemented with 500 μg/ml G418 was added (Sigma-Aldrich). Murine immature dendritic cell line JAWSII (ATCC CRL-11904™) was cultured in Alpha minimum essential medium containing 4 mM L-glutamine, 1 mM sodium pyruvate, 5 ng/ml murine Granulocyte macrophage colony-stimulating factor (GM-CSF), 20% FBS, 100 U/ml penicillin and 100 μg/ml streptomycin at 37 °C in humidified air with 5% CO2. The cell cytotoxicity was determined using the MTT (3-(4, 5-dimethylthiazol-2-yl)-2, 5-diphenyltetrazolium bromide metabolic activity assay according to the manufacturer’s instruction (Thermo Fisher Scientific). Briefly, cells (5 × 10^3 cells/well) were seeded in 96-well tissue culture plates, incubated overnight and treated with AvBDs at concentrations of 4, 16, 64 and 256 μg/ml for 4, 12, 24 and 48 h at 37 °C. After treatment, 20 μl of 12 mM MTT solution was added to each well. The plate was incubated for 4 h and read at 540 nm. Viability was expressed as percentage of viable cells relative to the untreated control. The experiments were performed in triplicate.

[8] = 100× diluted Muller Hinton II broth, 5 mM NaCl, 5 × 10^5 CFU/ml, 37 °C, 24 h, triplicate
[9] = CLSI, standard Muller Hinton II broth, 5 × 10^5 CFU/ml, 37 °C, 24 h, triplicate
[10] = sub-culture of clear MIC-ls wells on LB agar, lowest concentration inhibiting more than 99% of growth, triplicate

Row | Substance | percent of killing of E. coli [1] [%] | percent of killing of P. aeruginosa [2] [%] | percent of killing of S. Typhimurium [3] [%] | percent of killing of S. aureus [4] [%] | MBC-ls E. coli (ATCC 25922) (E. coli (ATCC 25922); ATCC 25922, 24 h) [µg/mL] | MIC-ls E. coli (ATCC 25922) (E. coli (ATCC 25922); ATCC 25922, 24 h) [µg/mL] | MBC-ls S. Typhimurium (ATCC 14028) ([5]; ATCC 14028, 24 h) [µg/mL] | MIC-ls S. Typhimurium (ATCC 14028) ([5]; ATCC 14028, 24 h) [µg/mL] | MBC-ls P. aeruginosa (ATCC 27853) ([6]; ATCC 27853, 24 h) [µg/mL] | MIC-ls P. aeruginosa (ATCC 27853) ([6]; ATCC 27853, 24 h) [µg/mL] | MBC-ls S. aureus (ATCC 29213) (S. aureus (ATCC 29213); ATCC 29213, 24 h) [µg/mL] | MIC-ls S. aureus (ATCC 29213) (S. aureus (ATCC 29213); ATCC 29213, 24 h) [µg/mL] | chemotactic activity for JAWSII cells (in words) ([7]; n = 5) | further results
1 | GPRSANHKRGLARVGNANPGKYLAKYSFRPVILSSKPLSPTPTKT [AvBD-12A3] | 100 | 100 | 93.9 | 91.7 | 16 | 4 | 64 | 16 | 16 | 8 | 256 | 128 | – | killing potency against E. coli retained at 150 mM NaCl [1]: approximately 80%; killing potency against P. aeruginosa retained at 150 mM NaCl [2]: approximately 80%; killing activity against S. Typhimurium retained at 150 mM NaCl [3]: 30-60%; killing activity against S. aureus retained at 150 mM NaCl [4]: 30-60%; MIC E. coli (ATCC 25922) (E. coli (ATCC 25922); ATCC 25922, 24 h): 128 µg/mL; MIC S. Typhimurium (ATCC 14028) ([5]; ATCC 14028, 24 h): >256 µg/mL; MIC P. aeruginosa (ATCC 27853) ([6]; ATCC 27853, 24 h): >256 µg/mL; MIC S. aureus (ATCC 29213) (S. aureus (ATCC 29213); ATCC 29213, 24 h): >256 µg/mL; chemotactic index (C.I.) for JAWSII cells ([7]; peptide 64 μg/ml, migrated cells with peptide / with chemotactic buffer, n = 5): 3.74; chemotactic activity for JAWSII cells, % of wild type ([7]; peptide 64 μg/ml, relative to AvBD-12): 56.6 % of wild type; metabolic activity (viability relative to untreated control), CHO-K1 (CHO-K1 cells): No significant difference was found
2 | GPDS[Abu]NHDRGLCRVGNCNPGEYLAKYCFEPVIL[Abu]CKPLSPTPTKT (disulfide 12-27, 17-35) [AvBD-12A4] | – | – | – | – | >256 | 128 | >256 | 256 | >256 | 256 | >256 | >256 | – | killing activity against S. Typhimurium compared with AvBD-12 (in words) ([3]; 2 to 128 μg/ml, 2 h at 37 °C, p < 0.05, Fig. 4): weaker action than AvBD-12
3 | GPHSANHVRGLARVGNANPGLYLAKYAFIPVILAAKPLSPTPTKT [AvBD-12A1] | 88.6 | 72.3 | 95.6 | 77.2 | 32 | 8 | 128 | 32 | 256 | 32 | >256 | 256 | – | –
4 | GPDS[Abu]NHDRGL[Abu]RVGN[Abu]NPGEYLAKY[Abu]FEPVIL[Abu][Abu]KPLSPTPTKT [AvBD-12A6] | – | – | – | – | 256 | 64 | >256 | 256 | >256 | 256 | >256 | >256 | lost their chemotactic activity | –
5 | GPDS[Abu]NHDRGL[Abu]RVGNCNPGEYLAKY[Abu]FEPVIL[Abu]CKPLSPTPTKT (disulfide 17-35) [AvBD-12A5] | – | – | – | – | 256 | 64 | >256 | 256 | >256 | 256 | >256 | >256 | lost their chemotactic activity | –
6 | GPRSSNHKRGLSRVGNSNPGKYLAKYAFRPVILAAKPLSPTPTKT [AvBD-12A2] | 100 | 98 | 93.9 | 83.1 | 16 | 4 | 64 | 16 | 32 | 16 | 256 | 256 | – | killing potency against E. coli retained at 150 mM NaCl [1]: approximately 80%; killing potency against P. aeruginosa retained at 150 mM NaCl [2]: approximately 80%; killing activity against S. Typhimurium retained at 150 mM NaCl [3]: 30-60%; killing activity against S. aureus retained at 150 mM NaCl [4]: 30-60%
7 | GPDSC^1NHDRGLC^2RVGNC^3NPGEYLAKYC^4FEPVILC^5C^6VRNRWA (bicyclic or more) [AvBD-12/6, group 3 hybrid peptide: backbone of AvBD-12 with amino acid residues of AvBD-6] | – | – | – | – | – | – | – | – | – | – | – | – | retained the chemotactic function | MIC-ls E. coli (ATCC 25922) (E. coli (ATCC 25922); [8]): 8 µg/mL; MIC E. coli (ATCC 25922) (E. coli (ATCC 25922); [9]): 256 µg/mL; MBC-ls E. coli (ATCC 25922) (E. coli (ATCC 25922); [10]): 32 µg/mL; MIC-ls S. Typhimurium (ATCC 14028) [5, 8]: 16 µg/mL; MIC S. Typhimurium (ATCC 14028) [5, 9]: >256 µg/mL; MBC-ls S. Typhimurium (ATCC 14028) [5, 10]: 64 µg/mL; MIC-ls P. aeruginosa (ATCC 27853) [6, 8]: 64 µg/mL; MIC P. aeruginosa (ATCC 27853) [6, 9]: >256 µg/mL; MBC-ls P. aeruginosa (ATCC 27853) [6, 10]: 256 µg/mL; MIC-ls S. aureus (ATCC 29213) (S. aureus (ATCC 29213); [8]): 256 µg/mL; MIC S. aureus (ATCC 29213) (S. aureus (ATCC 29213); [9]): 256 µg/mL; MBC-ls S. aureus (ATCC 29213) (S. aureus (ATCC 29213); [10]): 256 µg/mL; metabolic activity (viability relative to untreated control), CHO-K1 (CHO-K1 cells): No significant difference was found
